Article PMC4029847 (Journal of clinical pharmacology, 2013)

Target: T1, OATP1A2 (Homo sapiens, UniProt P46721)
T1 sequence (P46721 1-670): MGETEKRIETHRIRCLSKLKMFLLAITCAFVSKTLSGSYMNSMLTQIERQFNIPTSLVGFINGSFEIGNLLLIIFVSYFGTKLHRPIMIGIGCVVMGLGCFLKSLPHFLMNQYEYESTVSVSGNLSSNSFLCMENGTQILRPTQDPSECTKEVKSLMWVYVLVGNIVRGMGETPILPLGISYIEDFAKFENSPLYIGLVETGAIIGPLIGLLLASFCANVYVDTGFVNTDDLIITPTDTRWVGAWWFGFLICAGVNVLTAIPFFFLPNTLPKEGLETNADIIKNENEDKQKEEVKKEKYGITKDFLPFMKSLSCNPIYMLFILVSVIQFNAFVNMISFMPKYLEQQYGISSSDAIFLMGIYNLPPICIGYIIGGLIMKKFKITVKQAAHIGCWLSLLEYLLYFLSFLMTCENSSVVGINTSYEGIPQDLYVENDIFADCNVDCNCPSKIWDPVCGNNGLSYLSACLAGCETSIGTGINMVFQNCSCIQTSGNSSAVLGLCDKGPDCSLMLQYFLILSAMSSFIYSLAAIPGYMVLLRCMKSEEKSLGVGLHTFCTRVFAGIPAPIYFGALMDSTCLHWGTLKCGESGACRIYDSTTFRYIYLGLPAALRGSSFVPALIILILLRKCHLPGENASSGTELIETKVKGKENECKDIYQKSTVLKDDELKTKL
Experiment: Inhibition of fexofenadine uptake in OATP1A2-transfected HEK293T/17 cells
Type: cell-based
Conditions: inhibitor 250 μmol/l, fexofenadine 5 μmol/l, 30 min

## O=C1OC(c2ccc(O)c(S(=O)(=O)O)c2)(c2ccc(O)c(S(=O)(=O)O)c2)c2c(Br)c(Br)c(Br)c(Br)c21 [BSP, bromosulfophthalein]
  Inhibition of fexofenadine uptake: did not inhibit
